# Entries after “also recorded” stand apart in the source; their conditions may differ.
# Tests used:
# [1] = target: T1, EphA4 (Rattus norvegicus, UniProt D3ZZK3); assay: ephrin-A1-induced EphA4 tyrosine phosphorylation in cortical neurons (immunoprecipitation, western blot); format: cell-based; conditions: cortical neurons pretreated with compound, then ephrin-A1; western blot for P-Tyr
# T1 construct: endogenous in cells; host or cells: primary rat cortical neurons (A5), primary rat hippocampal neurons (A7)
# T1 sequence (D3ZZK3 20-986): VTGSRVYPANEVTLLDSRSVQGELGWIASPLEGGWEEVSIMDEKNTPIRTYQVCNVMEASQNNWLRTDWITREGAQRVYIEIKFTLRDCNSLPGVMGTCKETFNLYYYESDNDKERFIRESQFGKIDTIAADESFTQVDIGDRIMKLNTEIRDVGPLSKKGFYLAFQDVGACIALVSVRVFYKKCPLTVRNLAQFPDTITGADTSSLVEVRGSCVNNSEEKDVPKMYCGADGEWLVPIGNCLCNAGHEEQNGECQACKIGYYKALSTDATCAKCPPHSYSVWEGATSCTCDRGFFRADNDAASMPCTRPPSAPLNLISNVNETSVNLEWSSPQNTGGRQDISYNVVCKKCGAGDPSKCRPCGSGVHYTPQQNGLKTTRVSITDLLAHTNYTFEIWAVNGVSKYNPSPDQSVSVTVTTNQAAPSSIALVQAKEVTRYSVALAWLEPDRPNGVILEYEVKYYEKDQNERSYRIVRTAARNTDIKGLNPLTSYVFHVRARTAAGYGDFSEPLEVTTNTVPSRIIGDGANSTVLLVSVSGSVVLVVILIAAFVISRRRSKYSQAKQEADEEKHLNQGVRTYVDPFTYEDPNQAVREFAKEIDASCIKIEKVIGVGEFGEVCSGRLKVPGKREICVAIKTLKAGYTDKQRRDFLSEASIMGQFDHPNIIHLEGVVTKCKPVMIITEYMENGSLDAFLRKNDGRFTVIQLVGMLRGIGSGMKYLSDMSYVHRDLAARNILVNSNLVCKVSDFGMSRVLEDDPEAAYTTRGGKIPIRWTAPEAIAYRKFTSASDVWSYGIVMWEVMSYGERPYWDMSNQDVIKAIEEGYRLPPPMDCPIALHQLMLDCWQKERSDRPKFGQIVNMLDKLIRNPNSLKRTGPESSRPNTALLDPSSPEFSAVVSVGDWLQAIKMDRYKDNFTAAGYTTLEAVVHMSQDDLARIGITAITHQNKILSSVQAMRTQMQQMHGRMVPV
# Protocol: Primary cortical and hippocampal neurons were prepared from embryonic day 18-19 rat embryos as described previously^24. Briefly, cortical neurons (6×10^6 per plate) were plated on 100-mm culture dishes coated with poly-D-lysine (12.5 μg/mL; Sigma). Rat hippocampal neurons were seeded on 18-mm coverslips coated with poly-D-lysine (50 μg/mL) at a density of 0.5×10^5/18-mm coverslip for immunocytochemical analysis, 0.1×10^5/18-mm coverslip for growth cone collapse assay, or 1×10^5 or 1.5×10^5/18-mm coverslip for mEPSC recording. Neurons were fed Neurobasal medium (Invitrogen) supplemented with 2% B27 (Invitrogen). Acute brain slices were prepared from P15-P17 Sprague-Dawley rats. Briefly, the rats were rapidly decapitated, and their brains were immersed in ice-cold artificial cerebrospinal fluid (ACSF). The hippocampus was dissected, and 300-μm-thick slices were prepared using a vibratome (Lieca). The slices were then transferred into an incubating chamber containing circulating ACSF equilibrated with 95% O2+5% CO2 and held at room temperature for at least 2 h for recovery prior to experiments^65.
# For the immunoprecipitation assay, lysates were immunoprecipitated with the corresponding antibody for 2 h at 4° C. followed by incubation with protein G Sepharose for 1 h at 4° C.^24. […] EphA4 tyrosine phosphorylation was detected by western blot analysis using 4G10 antibody. […]
# [2] = target: T1, EphA4; assay: Ephrin-A1-induced EphA4 cluster assay in cultured hippocampal neurons; format: cell-based; conditions: cultured hippocampal neurons 3 DIV, different concentrations
# Protocol: (§1) For EphA4 clustering, neurons were stained with anti-EphA4 and anti-Tau-1 antibodies. For the growth cone collapse assay, neurons were stained with Alexa Fluor 555-conjugated phalloidin (Molecular Probes) for filamentous actin and anti-Tau-1 antibody for axons. Collapsed growth cones were scored in a double-blinded manner. The experiments were repeated at least 3 times, and >50 neurons were analyzed for each experiment. Data are presented as mean±SEM.
# Rat hippocampal neurons were seeded on 48-well plates coated with poly-D-lysine (50 μg/mL) at 6000 cells per well. Neurons were incubated with Neurobasal medium (Invitrogen) supplemented with 2% B27 (Invitrogen). […] Neurons were then immunostained with anti-EphA4 and anti-Tau-1 antibodies. The cellular imaging and quantification of EphA4 clusters was performed using IN Cell Analyzer 6000 high content assay system (GE Healthcare). EphA4 clusters were quantified by calculating the proportion of total area of EphA4 clusters on axons against Tau positive area. Statistical analysis was performed with one-way ANOVA followed by Newman-Keuls Multiple Comparison Test (Prism 5 GraphPad Software).
# [3] = test system: EphA4-dependent growth cone collapse in hippocampal neurons; assay: EphA4-dependent (ephrin-A1-stimulated) growth cone collapse assay; format: cell-based, rat; conditions: cultured hippocampal neurons
# Protocol: Ephrin-A1-Fc was pre-clustered with goat anti-human Fc antibody (1:4.5)^24 and incubated at room temperature for 60 min before use. The growth cone collapse assay was performed in hippocampal neurons with ephrin-A1 0.1 μg/mL as described previously^61.
# as §1
# To screen for small molecule EphA4 inhibitors, the inventors performed a molecular docking analysis using a small molecule library. […] Their ability in inhibiting EphA4 inhibiting the EphA4-dependent growth cone collapse using cultured hippocampal neurons was performed.
# [4] = test system: glutamate-induced Ca2+ influx; conditions: subsequent study; cited from earlier work
structure (smiles),measurement,setting,value
"CC[C@H]1CN2CC[C@]3(C(=O)Nc4ccccc43)[C@@H]2C[C@@H]1/C(=C\OC)C(=O)OC [Rhy, methyl (7β,16E,20α)-16-(methoxymethylene)-2-oxocorynoxan-17-oate]",ephrin-A1-induced EphA4 tyrosine phosphorylation,[1],reduced the specific phosphorylation; also recorded: inhibited Eph-ephrin-A interaction and EphA4 tyrosine phosphorylation
same,ephrin-A1-induced EphA4 clustering,[2],reduced the ephrin-A1-induced EphA4 clustering; also recorded: abolished ephrin-A1-induced EphA4 clustering
same,ephrin-A1-stimulated growth cone collapse,[3],reduced; also recorded: inhibited ephrin-A1-stimulated growth cone collapse
same,inhibition of glutamate-induced Ca2+ influx,[4],nor inhibits the glutamate-induced Ca^2+ influx

# From patent US9629830B2, “EphA4 inhibitors as neuroprotective agents” (The Hong Kong University of Science and Technology, priority 2013, dated 2017)
